Test results reported in patent US7208528B1, “Polyamine analogues as therapeutic and diagnostic agents” (MediQuest Therapeutics, Inc., priority 1997, dated 2007).

Tests used:
Solubility in water = assay type: physicochemical; details: pH 7.0
[1] = tested on: polyamine transport system of MDA cells; experiment: SPD transport inhibition and recovery after washing in MDA cells; assay type: cell-based, human; details: 3 day incubation
[2] = tested on: MDA breast carcinoma cells; experiment: Rescue from DFMO-induced growth inhibition of MDA cells without added polyamines, six day growth assay; assay type: cell-based, human; details: Homo sapiens, Breast carcinoma cell, 144 h; 230 μM, no additional polyamines, six day growth assay; read-out: cell number, % of control
Description: An additional series of spermine amides were evaluated to extend the structure-activity relationship around this polyamine transport target.
Growth assays were done over a six day period in order to allow for polyamine depletion within cells. When synthesis of polyamines is inhibited, cells compensate by increasing transport of extracellular polyamines into the cell. Over the time course of the assay, polyamines in the culture media may be depleted resulting in growth inhibition.

MDA cells [3] = experiment: Long term (three week) growth of MDA cells with DFMO, 1202 or both; assay type: cell-based, human; details: DFMO 500 μM or 1202 60 μM alone, three weeks
MDA cells [4] = experiment: Intracellular polyamine levels in MDA cells after long term treatment; assay type: cell-based, human; details: DFMO alone, one and three weeks
From the text: We examined the intracellular polyamine levels in MDA cells after 6 and 20 days of growth in the presence of polyamine synthesis inhibitor or transport inhibitor, or both.

[5] = tested on: polyamine transport system of MDA cells; experiment: Transport Km and Vmax with 3H-SPD after long term treatment of MDA cells; assay type: cell-based, human; details: DFMO in the presence of SPD
From the text: We wished to determine the effects of long term treatment with DFMO, 1202, or both, on polyamine transport characteristics.

[6] = tested on: mutant L1210 leukemia cells deficient in polyamine uptake; details: cited from earlier work
[7] = tested on: wild-type L1210 cancer cells; details: cited from earlier work
MDA-MB-231 cells = experiment: Growth assay of MDA-MB-231 cells with ODC inhibitor (DFMO) and 1 μM spermidine; details: alone, in the presence of 1 μM SPD
Description: The estrogen insensitive human breast carcinoma MDA-MB-231 cell line as the primary cell line in the screen. […] In order to optimize the screen for polyamine transport inhibition, 1.0 μM spermidine was added to media to reverse the effects of ODC inhibitors. The assay was also performed over seven days because this allows for the greatest dynamic range in cell growth due to the mechanism of ODC inhibitors. Cells need to divide several times before the intracellular level of polyamines begin to decrease to growth inhibitory levels.
Compounds were tested for their ability to inhibit cell growth in the presence of 1 μM spermidine and 230 μM ODC inhibitor for the MDA-MB-231 cells or 1 mM ODC inhibitor for the PC3 cells.
In our six day growth assays, 1202 was tested at increasing concentrations with the optimal concentration of DFMO.

[8] = mice inoculated with mutant L1210 cells

| SMILES | solubility (Solubility in water) [mM] | up-regulation of SPD transport [1] [fold] | activity at 230 µM [2] [%] | growth rate with single compound (MDA cells [3]) | decrease in PUT levels (MDA cells [4]) | change in Vmax [5] | survival ([6]; PAT-deficient L1210 cells, DFMO) [days] | increase in median survival time [6, 8] [%] | mice cured [6, 8] | increase in median survival time ([7]; mice inoculated with the parental cell line) [%] | time to death ([7]; wild-type L1210, treated with DFMO) [days] | effect on growth of single agent (MDA-MB-231 cells) |
| --- | --- | --- | --- | --- | --- | --- | --- | --- | --- | --- | --- | --- |
| NCCCCC(N)C(=O)NCCCNCCCCNCCCN [Compound 1202, N^1-Spermine-L-lysinyl amide] | ≥ 100 | – | – | – | – | – | – | – | – | – | – | – |
| NCCC[C@](N)(C(=O)O)C(F)F [DFMO, α-difluoromethylornithine] | – | 3 | 35 | little difference in growth rate | 69–86% | no change | > 60 | 87 | 13 of 40 | 22 | 12 | minimal |
